Among the data in ChEMBL document CHEMBL1201862, “PubChem BioAssay data set” (2004) are IC50, AC50 and CC50 values, retold here.

Active and inactive are the calls of the source.

The target of one experiment is T1, Hexokinase HKDC1 (Homo sapiens, UniProt Q2TB90).
T1 sequence (Q2TB90 whole entry): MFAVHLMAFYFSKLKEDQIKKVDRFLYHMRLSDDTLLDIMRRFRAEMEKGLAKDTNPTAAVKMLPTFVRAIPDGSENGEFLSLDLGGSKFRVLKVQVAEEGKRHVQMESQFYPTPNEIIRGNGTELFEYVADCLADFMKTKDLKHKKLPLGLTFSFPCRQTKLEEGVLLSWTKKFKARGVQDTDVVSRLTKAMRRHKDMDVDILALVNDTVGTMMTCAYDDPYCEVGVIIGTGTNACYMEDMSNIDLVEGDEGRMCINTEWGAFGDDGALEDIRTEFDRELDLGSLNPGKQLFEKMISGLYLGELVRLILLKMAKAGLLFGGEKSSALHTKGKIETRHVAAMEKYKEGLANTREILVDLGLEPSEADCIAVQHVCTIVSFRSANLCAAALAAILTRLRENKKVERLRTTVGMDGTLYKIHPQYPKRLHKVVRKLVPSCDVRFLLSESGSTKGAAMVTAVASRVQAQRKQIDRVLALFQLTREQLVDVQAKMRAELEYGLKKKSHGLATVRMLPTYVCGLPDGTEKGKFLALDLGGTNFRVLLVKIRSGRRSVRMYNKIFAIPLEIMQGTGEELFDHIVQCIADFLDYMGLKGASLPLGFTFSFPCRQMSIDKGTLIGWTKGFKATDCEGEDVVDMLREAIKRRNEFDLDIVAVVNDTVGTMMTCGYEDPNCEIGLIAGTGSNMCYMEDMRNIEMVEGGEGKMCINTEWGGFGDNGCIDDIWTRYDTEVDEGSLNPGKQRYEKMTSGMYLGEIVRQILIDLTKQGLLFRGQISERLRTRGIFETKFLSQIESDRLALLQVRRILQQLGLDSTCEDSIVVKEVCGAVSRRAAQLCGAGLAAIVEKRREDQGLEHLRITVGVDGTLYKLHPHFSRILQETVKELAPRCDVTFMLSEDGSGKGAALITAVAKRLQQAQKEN
The experiment can be described thus: HKDC1 hexokinase inhibitors, dose response, biochemical, W721R variant (AID 504729). It counts as functional.

The target of experiment [1] is T2, Microphthalmia-associated transcription factor (Homo sapiens, UniProt O75030).
T2 sequence (O75030 whole entry): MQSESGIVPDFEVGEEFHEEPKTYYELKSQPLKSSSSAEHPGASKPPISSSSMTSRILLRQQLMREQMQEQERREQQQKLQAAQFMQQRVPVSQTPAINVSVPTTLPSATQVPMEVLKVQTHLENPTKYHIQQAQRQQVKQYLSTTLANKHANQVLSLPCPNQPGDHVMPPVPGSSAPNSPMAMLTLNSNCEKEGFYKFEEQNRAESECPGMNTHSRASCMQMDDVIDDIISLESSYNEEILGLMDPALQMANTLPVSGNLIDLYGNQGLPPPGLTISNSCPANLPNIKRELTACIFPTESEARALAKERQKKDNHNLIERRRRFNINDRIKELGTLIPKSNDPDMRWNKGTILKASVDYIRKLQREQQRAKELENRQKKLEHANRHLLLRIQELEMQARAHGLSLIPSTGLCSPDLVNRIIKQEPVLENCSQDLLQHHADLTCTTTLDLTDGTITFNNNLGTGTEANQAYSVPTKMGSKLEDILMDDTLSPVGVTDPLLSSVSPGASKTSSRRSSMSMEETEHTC
The experiment can be described thus: TRPM1 promoter luciferase signal decrease, dose response, MITF inhibitor project, cell-based, SK-MEL-5, cherry-picked, set 3 (AID 493073).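 Further: SK-MEL-5 melanoma cells with luciferase driven by the MITF target TRPM1 promoter.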 It counts as functional.

The next experiment has as its system Vero. The experiment is described as follows: Vero cell cytotoxicity, cytotoxicity control for flavivirus capping enzyme inhibitors (AID 588742). The following applies: Chlorocebus sabaeus. It counts as functional.
Another experiment deals with Genome polyprotein (dengue virus type 2, UniProt P29990). The experiment is described as follows: Dengue-2 NS5 methyltransferase inhibitors, primary screen, biochemical, confirmation dose response (AID 588689). It counts as functional.
Sequence of Genome polyprotein (P29990 2492-3391 limits assumed): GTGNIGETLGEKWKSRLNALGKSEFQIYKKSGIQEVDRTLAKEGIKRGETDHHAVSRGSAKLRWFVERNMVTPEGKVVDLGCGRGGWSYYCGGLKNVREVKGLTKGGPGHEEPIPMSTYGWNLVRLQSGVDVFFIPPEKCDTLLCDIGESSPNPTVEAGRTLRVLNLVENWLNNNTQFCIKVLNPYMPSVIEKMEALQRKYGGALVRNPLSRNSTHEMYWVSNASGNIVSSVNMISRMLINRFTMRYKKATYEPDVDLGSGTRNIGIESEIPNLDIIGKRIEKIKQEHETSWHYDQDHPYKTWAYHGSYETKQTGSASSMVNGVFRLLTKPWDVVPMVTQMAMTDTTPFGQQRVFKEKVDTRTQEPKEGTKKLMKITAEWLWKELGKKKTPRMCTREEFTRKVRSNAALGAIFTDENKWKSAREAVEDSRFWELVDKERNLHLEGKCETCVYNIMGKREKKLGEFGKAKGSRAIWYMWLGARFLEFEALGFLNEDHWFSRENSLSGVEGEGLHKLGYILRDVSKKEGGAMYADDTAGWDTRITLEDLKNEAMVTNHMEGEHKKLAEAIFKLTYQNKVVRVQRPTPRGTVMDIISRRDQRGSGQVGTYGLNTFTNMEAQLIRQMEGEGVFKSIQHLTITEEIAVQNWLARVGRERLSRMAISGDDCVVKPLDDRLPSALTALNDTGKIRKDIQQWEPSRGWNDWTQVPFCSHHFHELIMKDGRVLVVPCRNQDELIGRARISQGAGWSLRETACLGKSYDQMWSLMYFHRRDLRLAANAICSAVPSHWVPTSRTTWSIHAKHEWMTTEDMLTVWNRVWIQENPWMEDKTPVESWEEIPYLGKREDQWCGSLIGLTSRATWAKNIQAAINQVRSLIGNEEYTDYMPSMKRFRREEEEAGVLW
The next experiment concerns the target T3, Caspase-6 (Homo sapiens, UniProt P55212).
T3 sequence (P55212 whole entry): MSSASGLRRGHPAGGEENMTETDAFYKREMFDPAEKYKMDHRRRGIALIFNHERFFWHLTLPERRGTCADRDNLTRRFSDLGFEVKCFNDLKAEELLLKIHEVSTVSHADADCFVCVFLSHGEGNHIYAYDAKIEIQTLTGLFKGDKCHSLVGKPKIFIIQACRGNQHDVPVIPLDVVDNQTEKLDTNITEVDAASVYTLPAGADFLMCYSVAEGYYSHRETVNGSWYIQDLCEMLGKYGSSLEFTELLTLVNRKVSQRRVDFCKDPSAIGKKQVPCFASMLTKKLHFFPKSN
The experiment can be described thus: human caspase-6 inhibitors, dose response, biochemical, VEID-R110 fluorescence, cherry-pick (AID 720632).

Experiment [2] deals with T4, Histone-lysine N-methyltransferase NSD2 (Homo sapiens, UniProt O96028).
T4 sequence (O96028 whole entry): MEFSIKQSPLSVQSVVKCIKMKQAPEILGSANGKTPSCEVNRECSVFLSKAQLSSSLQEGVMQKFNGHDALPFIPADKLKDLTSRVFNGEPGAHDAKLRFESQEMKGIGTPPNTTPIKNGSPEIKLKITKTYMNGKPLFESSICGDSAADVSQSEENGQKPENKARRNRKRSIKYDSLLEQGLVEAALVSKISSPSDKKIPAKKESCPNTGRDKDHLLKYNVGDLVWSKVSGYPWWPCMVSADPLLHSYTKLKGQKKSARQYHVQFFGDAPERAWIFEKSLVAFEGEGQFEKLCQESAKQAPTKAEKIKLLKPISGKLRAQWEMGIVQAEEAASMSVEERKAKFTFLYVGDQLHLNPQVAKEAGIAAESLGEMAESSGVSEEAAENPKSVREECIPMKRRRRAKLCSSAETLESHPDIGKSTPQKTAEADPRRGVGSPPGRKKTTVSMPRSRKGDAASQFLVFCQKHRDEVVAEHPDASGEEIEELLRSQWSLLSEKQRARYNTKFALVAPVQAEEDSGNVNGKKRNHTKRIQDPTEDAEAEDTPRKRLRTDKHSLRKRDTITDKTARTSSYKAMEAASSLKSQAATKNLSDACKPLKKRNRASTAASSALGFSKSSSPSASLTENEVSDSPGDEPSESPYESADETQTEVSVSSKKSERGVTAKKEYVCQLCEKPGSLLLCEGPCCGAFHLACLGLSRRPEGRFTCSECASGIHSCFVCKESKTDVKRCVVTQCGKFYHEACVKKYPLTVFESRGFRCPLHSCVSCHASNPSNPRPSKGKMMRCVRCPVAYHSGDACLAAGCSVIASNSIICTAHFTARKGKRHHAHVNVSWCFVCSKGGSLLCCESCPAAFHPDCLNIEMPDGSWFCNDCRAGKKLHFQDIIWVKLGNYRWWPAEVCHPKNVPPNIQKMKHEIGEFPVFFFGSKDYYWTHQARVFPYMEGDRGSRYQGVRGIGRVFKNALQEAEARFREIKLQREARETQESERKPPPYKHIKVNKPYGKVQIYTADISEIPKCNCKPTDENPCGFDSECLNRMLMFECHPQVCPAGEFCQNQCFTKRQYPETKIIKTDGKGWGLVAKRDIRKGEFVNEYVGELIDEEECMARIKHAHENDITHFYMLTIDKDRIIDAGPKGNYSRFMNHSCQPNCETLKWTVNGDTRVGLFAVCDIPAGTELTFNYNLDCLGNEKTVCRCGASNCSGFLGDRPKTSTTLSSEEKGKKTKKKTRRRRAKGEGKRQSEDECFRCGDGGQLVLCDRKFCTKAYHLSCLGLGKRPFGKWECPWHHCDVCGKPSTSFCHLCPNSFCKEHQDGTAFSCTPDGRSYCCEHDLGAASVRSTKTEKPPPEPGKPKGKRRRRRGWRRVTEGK
It counts as biochemical.

Experiment [3] deals with Tyrosyl-DNA phosphodiesterase 2 (Homo sapiens, UniProt O95551). The experiment is described as follows: human TDP2 enzyme inhibitors, dose response, biochemical, epi absorbance, IC50 (AID 743297).
Sequence of Tyrosyl-DNA phosphodiesterase 2 (O95551 whole entry): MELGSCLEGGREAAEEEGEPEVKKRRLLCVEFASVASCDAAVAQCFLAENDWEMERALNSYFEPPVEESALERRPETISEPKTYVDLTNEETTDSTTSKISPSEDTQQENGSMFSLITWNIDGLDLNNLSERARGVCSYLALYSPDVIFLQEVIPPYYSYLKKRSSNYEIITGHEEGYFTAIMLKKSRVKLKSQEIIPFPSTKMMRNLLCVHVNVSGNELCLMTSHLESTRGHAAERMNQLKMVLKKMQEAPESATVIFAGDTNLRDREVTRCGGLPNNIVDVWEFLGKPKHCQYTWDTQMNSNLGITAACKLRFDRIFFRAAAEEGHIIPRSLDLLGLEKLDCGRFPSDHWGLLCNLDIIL
The target of another experiment is Paired box protein Pax-8 (Homo sapiens, UniProt Q06710). The experiment can be described thus: inhibitors of PAX8-driven TPO luciferase reporter, dose response, RMG-I cells, cherry-pick (AID 687027).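 Further: luciferase reporter driven by Pax8 target thyroperoxidase promoter measured by SteadyGlo luminescence.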 It counts as functional, cell-based. Background: A reporter such as luciferase makes a cellular process visible.
Sequence of Paired box protein Pax-8 (Q06710 whole entry): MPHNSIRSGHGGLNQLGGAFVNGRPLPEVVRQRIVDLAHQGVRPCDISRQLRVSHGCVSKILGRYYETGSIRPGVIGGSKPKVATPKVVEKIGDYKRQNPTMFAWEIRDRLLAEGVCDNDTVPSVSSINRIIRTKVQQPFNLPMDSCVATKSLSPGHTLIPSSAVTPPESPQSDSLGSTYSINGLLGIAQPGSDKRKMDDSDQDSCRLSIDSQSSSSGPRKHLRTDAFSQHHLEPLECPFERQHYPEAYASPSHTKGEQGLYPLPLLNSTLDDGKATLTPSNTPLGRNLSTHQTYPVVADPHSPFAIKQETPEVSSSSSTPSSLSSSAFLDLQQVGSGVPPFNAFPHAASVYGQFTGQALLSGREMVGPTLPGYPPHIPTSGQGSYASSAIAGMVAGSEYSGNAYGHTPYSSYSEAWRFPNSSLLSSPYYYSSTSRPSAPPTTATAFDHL
Experiment [4] in a line: IOSE-T80 ovarian epithelial cell cytotoxicity, dose response, cytotoxicity control for PAX8 inhibitor project, plate reader, dry powder samples (AID 743045). It counts as functional, cell-based.
A short description of experiment [5]: A2780 ovarian cancer cell cytotoxicity, dose response, cytotoxicity control, plate reader, dry powder samples (AID 743046). It counts as functional, cell-based.
A short description of experiment [6]: NIH:OVCAR-3 ovarian cancer cell cytotoxicity, dose response, PAX8 inhibitor project, plate reader, dry powder samples (AID 743044). It counts as functional, cell-based.
Experiment [7] in a line: non-specific cell cytotoxicity, dose response, cytotoxicity control for PAX8 inhibitor project, plate reader, dry powder samples (AID 743021). It counts as functional, cell-based.
The target in experiment [8] is Protein disulfide-isomerase (Homo sapiens, UniProt P07237). The experiment is described as follows: PDI inhibitors, insulin turbidity readout, confirmation, biochemical, dry powder samples, set 2 (AID 652146).
Sequence of Protein disulfide-isomerase (P07237 whole entry): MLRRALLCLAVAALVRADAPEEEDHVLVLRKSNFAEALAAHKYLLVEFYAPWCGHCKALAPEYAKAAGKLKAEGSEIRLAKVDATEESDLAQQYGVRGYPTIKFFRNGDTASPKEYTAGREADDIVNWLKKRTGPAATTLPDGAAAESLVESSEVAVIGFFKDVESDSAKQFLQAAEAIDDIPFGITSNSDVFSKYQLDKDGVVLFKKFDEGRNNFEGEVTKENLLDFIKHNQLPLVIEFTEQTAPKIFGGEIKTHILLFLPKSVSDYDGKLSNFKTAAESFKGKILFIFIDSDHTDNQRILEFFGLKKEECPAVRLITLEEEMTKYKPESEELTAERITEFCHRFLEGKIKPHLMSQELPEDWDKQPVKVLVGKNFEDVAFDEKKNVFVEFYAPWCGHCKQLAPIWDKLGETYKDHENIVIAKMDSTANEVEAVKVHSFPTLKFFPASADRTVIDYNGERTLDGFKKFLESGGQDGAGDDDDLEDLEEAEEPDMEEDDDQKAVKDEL

The IC50 is the concentration at which inhibition is half-maximal. In general, AC50 refers to the midpoint of the concentration-response curve, whichever way the signal moves. Broadly, the CC50 is the concentration at which the toxic effect on the cells reaches its halfway point. For the compound `Cc1ccc(C)c(-n2c3nc(=O)[nH]c(=O)c-3cc3cc([N+](=O)[O-])ccc32)c1`, the IC50 on Hexokinase HKDC1 was 12.9 µM (active); at Genome polyprotein, 14.9 µM (active); in [3], > 128 µM (inactive). Further, the AC50 in experiment [1] was 8.42 µM (active); at Caspase-6, 20.7 µM (active); in experiment [2], > 20 µM (inactive). In addition, the half-maximal cytotoxic concentration (CC50) in the experiment with Vero is 14.5 µM (active).
Regarding `Cc1ccc(S(=O)(=O)Nc2ccc3c(c2)CC(=O)N([C@@H](C)CO)C[C@H](C)[C@@H](CN(C)Cc2ccc(Oc4ccccc4)cc2)O3)cc1`, the AC50 at Paired box protein Pax-8 was 4.67 µM (active); in [4], 26.3 µM (active); in experiment [5] it was 38.6 µM (active); in [6] it was 19.8 µM (active); in experiment [7] it was 55 µM (active).
On to `CCOC(=O)C1(Cc2cccc(OC)c2)CCN(Cc2ccc(O)c(Cl)c2)CC1`, for which the AC50 in experiment [8] was > 30 µM (inactive).
